# Experimental data published in PubChem BioAssay AID1963851 (Molecular Pharmacology Branch, DTP, NCI, 2024).
# System: 188146-221-R-J1-PDC complex spheroid viability
# Experiment: Anticancer human tumor 188146-221-R-J1-PDC patient-derived colon adenocarcinoma cell line growth inhibition [POLQ]
# Details: for IC50: curve of first compound; for viability, T/C: stronger effect = lower value
# Description: Multicellular complex tumor spheroid response to Polymerase (POL) inhibitors (novobiocin, ART-558, RP6685) in combination with a variety of drugs and investigational agents in selected tumor cell lines
# The POL inhibitors (novobiocin, ART-558, and RP6685) were evaluated both individually and in combination with standard of care and investigational anticancer small molecules within a complex spheroid model of solid tumors. . Complex spheroids include a stromal component modeled by human endothelial cells (HUVEC) and fibroblasts modeled by human mesenchymal stem cells (MSCs). The concentration ranges selected for each drug and investigational agent were based upon clinically achievable concentrations if the clinical Cmax of the agent was known.
# Compounds. The drugs and investigational agents: novobiocin (NSC847541), ART-558 (NSC835418), RP-6685 (NSC848927), peposertib (NSC802822), ceralasertib (NSC780249), elimusertib (NSC800525), camonsertib (NSC841442), AZD-1390 (NSC803789), olaparib (NSC753686), talazoparib (NSC767125), rucaparib (NSC756644), sotorasib (NSC818433), MRTX-1133 (NSC836407), SN-38 (NSC673596), topotecan (NSC609699), epotoside (NSC141540), doxorubicin (NSC123127), gemcitabine (NSC613327), 5-fluorouracil (NSC19893), paclitaxel (NSC125973), vemurafenib (NSC761431), MSA-2 (NSC828583), SN-011 (NSC837082), adavosertib (NSC754352), prexasertib (NSC758257), carboplatin (NSC241240) and oxaliplatin (NSC266046), were obtained from the National Cancer Institute (NCI) Developmental Therapeutics Program Chemical Repository (21). The FDA-approved anticancer drug set is available from the Developmental Therapeutics Program at https://dtp.cancer.gov/organization/dscb/obtaining/. […] The stock solutions were prepared in dimethyl sulfoxide (DMSO, Sigma-Aldrich, St. Louis, MO, cat. D2650), except for the platinum compounds which were prepared in saline (Quality Biological, Gaithersburg, MD, cat. 114-055-101), at 800-fold the tested concentration and stored at -70 degrees C prior to their use. All drugs and investigational agents were tested over a range starting from a high concentration at or near the clinical Cmax and decreasing in half-log increments. If the clinical Cmax for an agent had not been determined, the highest concentration tested was 10 microM, except for SN-38, which was tested at a high concentration of 1 microM.
# Cell Culture. All cells were maintained in an incubator at 37 degrees C and 5% CO2 with 95% humidity. The PDC lines were cultured according to standard operating procedures established by the NCI PDMR (https://pdmr.cancer.gov). Table 3 of the manuscript, lists the cell lines along with the number of the three cell types plated to form the mct-spheroids and media for tumor cell growth. After thawing, all PDC lines, except 997537-175-T-J1-PDC and 415267-285-R-J2-PDC, were cultured in Matrigel-coated flasks prepared with a working solution of 1X Ham's F-12 nutrient mix, without supplementation (Thermo Fisher Scientific, cat. 11765054), 100 U/mL penicillin-streptomycin (Thermo Fisher Scientific, cat. 15140122), and 2.5% Matrigel (Corning Inc., Corning, NY, cat. 354248) for the first three passages. The two PDC lines 997537-175-T-J1-PDC and 415267-285-R-J2-PDC were cultured on uncoated flasks. The 857933-349-R-J2-PDC line was cultured in 6C/Colon 1B media containing advanced DMEM/F-12 (Thermo Fisher Scientific, cat. 12634028), 10 mM HEPES (Thermo Fisher Scientific, cat. 15630080), 1X GlutaMAX supplement (Thermo Fisher Scientific, cat. 35050061), 0.1 mg/mL primocin (InvivoGen, San Diego, CA, cat. ant-pm-2), 10% defined fetal bovine serum, heat inactivated (HyClone Laboratories Inc., Logan, UT, cat. SH30070.03HI), 50% L-WRN conditioned media (ATCC, cat. CRL-3276), 1.25 mM N-Acetyl-L-cysteine (Sigma-Aldrich, cat. A9165), 10 mM nicotinamide (Sigma-Aldrich, cat. N0636), 1X B-27 supplement (Thermo Fisher Scientific, cat. 17504044), 1X N-2 supplement (Thermo Fisher Scientific, cat. […]
# [1] = second compound 0.0316 µM, first compound 0.0316 µM
# [2] = second compound 0.0316 µM, first compound 0.1 µM
# [3] = second compound 0.0316 µM, first compound 0.316 µM
# [4] = second compound 0.0316 µM, first compound 1 µM
# [5] = second compound 0.0316 µM, first compound 3.16 µM
# [6] = second compound 0.0316 µM, first compound 10 µM
# [7] = second compound 0.1 µM, first compound 0.0316 µM
# [8] = second compound 0.1 µM, first compound 0.1 µM
# [9] = second compound 0.1 µM, first compound 0.316 µM
# [10] = second compound 0.1 µM, first compound 1 µM
# [11] = second compound 0.1 µM, first compound 3.16 µM
# [12] = second compound 0.1 µM, first compound 10 µM
# [13] = second compound 0.316 µM, first compound 0.0316 µM
# [14] = second compound 0.316 µM, first compound 0.1 µM
# [15] = second compound 0.316 µM, first compound 0.316 µM
# [16] = second compound 0.316 µM, first compound 1 µM
# [17] = second compound 0.316 µM, first compound 3.16 µM
# [18] = second compound 0.316 µM, first compound 10 µM
# [19] = second compound 1 µM, first compound 0.0316 µM
# [20] = second compound 1 µM, first compound 0.1 µM
# [21] = second compound 1 µM, first compound 0.316 µM
# [22] = second compound 1 µM, first compound 1 µM
# [23] = second compound 1 µM, first compound 3.16 µM
# [24] = second compound 1 µM, first compound 10 µM
# [25] = second compound 3.16 µM, first compound 0.0316 µM
# [26] = second compound 3.16 µM, first compound 0.1 µM
# [27] = second compound 3.16 µM, first compound 0.316 µM
# [28] = second compound 3.16 µM, first compound 1 µM
# [29] = second compound 3.16 µM, first compound 3.16 µM
# [30] = second compound 3.16 µM, first compound 10 µM
# [31] = second compound 10 µM, first compound 0.0316 µM
# [32] = second compound 10 µM, first compound 0.1 µM
# [33] = second compound 10 µM, first compound 0.316 µM
# [34] = second compound 10 µM, first compound 1 µM
# [35] = second compound 10 µM, first compound 3.16 µM
# [36] = second compound 10 µM, first compound 10 µM
# 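Further: spheroids exposed to compounds for seven days.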
# 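Wherever viability, T/C is given: 100% = DMSO vehicle control viability.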
smiles,measurement,setting,value
COc1ccc([C@@H](O)c2cc(-c3ncnc4cc(N5CCOCC5)ccc34)c(F)cc2Cl)nn1 + Nc1ccc(C#CCN(C(=O)Cc2ncc(C(F)(F)F)cc2C(F)(F)F)c2ccc(F)cc2)nn1,IC50,second compound 0.0316 µM,6.82 µM
same,IC50,second compound 0.1 µM,6.9 µM
same,IC50,second compound 0.316 µM,> 10 µM
same,IC50,second compound 1 µM,8.15 µM
same,IC50,second compound 3.16 µM,7.39 µM
same,IC50,second compound 10 µM,6.86 µM
same,"viability, T/C",[1],103%
same,"viability, T/C",[2],118%
same,"viability, T/C",[3],96.6%
same,"viability, T/C",[4],87.6%
same,"viability, T/C",[5],65.1%
same,"viability, T/C",[6],42.5%
same,"viability, T/C",[7],109%
same,"viability, T/C",[8],91.3%
same,"viability, T/C",[9],91.1%
same,"viability, T/C",[10],83.9%
same,"viability, T/C",[11],74.1%
same,"viability, T/C",[12],39%
same,"viability, T/C",[13],122%
same,"viability, T/C",[14],95.3%
same,"viability, T/C",[15],95.5%
same,"viability, T/C",[16],83.6%
same,"viability, T/C",[17],82.5%
same,"viability, T/C",[18],44.5%
same,"viability, T/C",[19],103%
same,"viability, T/C",[20],96.8%
same,"viability, T/C",[21],91.9%
same,"viability, T/C",[22],87.2%
same,"viability, T/C",[23],69.8%
same,"viability, T/C",[24],45.3%
same,"viability, T/C",[25],104%
same,"viability, T/C",[26],102%
same,"viability, T/C",[27],110%
same,"viability, T/C",[28],97.6%
same,"viability, T/C",[29],81.7%
same,"viability, T/C",[30],38.8%
same,"viability, T/C",[31],102%
same,"viability, T/C",[32],104%
same,"viability, T/C",[33],103%
same,"viability, T/C",[34],91.6%
same,"viability, T/C",[35],63.9%
same,"viability, T/C",[36],43.3%
COc1cc2cc(C(=O)CCC(=O)O)sc2cc1OC + Cc1cccc(N(C)C(=O)C2C(O)CCN2c2nc(C)cc(C(F)(F)F)c2C#N)c1,IC50,second compound 0.0316 µM,> 10 µM
same,IC50,second compound 0.1 µM,> 10 µM
same,IC50,second compound 0.316 µM,> 10 µM
same,IC50,second compound 1 µM,> 10 µM
same,IC50,second compound 3.16 µM,> 10 µM
same,IC50,second compound 10 µM,> 10 µM
same,"viability, T/C",[1],95.5%
same,"viability, T/C",[2],109%
same,"viability, T/C",[3],94.2%
same,"viability, T/C",[4],91.3%
same,"viability, T/C",[5],103%
same,"viability, T/C",[6],93.5%
same,"viability, T/C",[7],102%
same,"viability, T/C",[8],100%
same,"viability, T/C",[9],109%
same,"viability, T/C",[10],97.8%
same,"viability, T/C",[11],97.5%
same,"viability, T/C",[12],105%
same,"viability, T/C",[13],95.9%
same,"viability, T/C",[14],98.7%
same,"viability, T/C",[15],93.2%
same,"viability, T/C",[16],94%
same,"viability, T/C",[17],96.1%
same,"viability, T/C",[18],99%
same,"viability, T/C",[19],94.1%
same,"viability, T/C",[20],80.5%
same,"viability, T/C",[21],93.6%
same,"viability, T/C",[22],96.6%
same,"viability, T/C",[23],112%
same,"viability, T/C",[24],92.7%
same,"viability, T/C",[25],100%
same,"viability, T/C",[26],107%
same,"viability, T/C",[27],84.8%
same,"viability, T/C",[28],88.6%
same,"viability, T/C",[29],92.5%
same,"viability, T/C",[30],86.9%
same,"viability, T/C",[31],101%
same,"viability, T/C",[32],96.2%
same,"viability, T/C",[33],92.3%
same,"viability, T/C",[34],88.7%
same,"viability, T/C",[35],88.8%
same,"viability, T/C",[36],103%
